The results in this text go back to patent US9145392B2, “Imidazole amines as modulators of kinase activity” (Merck Patent GmbH, priority 2011, dated 2015).

The target in experiment [1] is P70S6K (T412E mutant) (Homo sapiens (Human), UniProt P23443, T412E). The experiment can be described thus: P70S6K enzyme assay. The format is biochemical. The conditions noted are these: read-out: IC50 p70S6K. In short, it runs like this: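 Read-out is the substrate/phosphopeptide ratio from mobility-shift electrophoresis on a LabChip 3000.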
Sequence of P70S6K (T412E mutant) (P23443 whole entry T412E): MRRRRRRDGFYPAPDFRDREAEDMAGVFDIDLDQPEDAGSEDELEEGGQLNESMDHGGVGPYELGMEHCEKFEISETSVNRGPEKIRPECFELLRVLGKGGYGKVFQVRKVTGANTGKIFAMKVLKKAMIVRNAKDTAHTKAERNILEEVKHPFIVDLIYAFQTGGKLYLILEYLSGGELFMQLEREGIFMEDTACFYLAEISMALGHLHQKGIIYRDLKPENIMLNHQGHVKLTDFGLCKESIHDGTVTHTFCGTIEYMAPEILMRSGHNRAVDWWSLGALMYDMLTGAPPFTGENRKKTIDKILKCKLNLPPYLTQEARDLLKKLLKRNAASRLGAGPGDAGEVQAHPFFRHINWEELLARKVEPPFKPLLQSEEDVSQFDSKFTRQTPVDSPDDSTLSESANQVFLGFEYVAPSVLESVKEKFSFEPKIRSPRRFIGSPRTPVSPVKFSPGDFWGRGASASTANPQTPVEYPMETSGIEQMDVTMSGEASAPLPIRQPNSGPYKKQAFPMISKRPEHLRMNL
Experiment [2] has as its target His-AKT (Full Length) (Homo sapiens (Human), UniProt P31749). Briefly: AKT enzyme assay. The format is biochemical. The settings on record: read-out: IC50 AKT.

Sequence of His-AKT (Full Length) (P31749 whole entry): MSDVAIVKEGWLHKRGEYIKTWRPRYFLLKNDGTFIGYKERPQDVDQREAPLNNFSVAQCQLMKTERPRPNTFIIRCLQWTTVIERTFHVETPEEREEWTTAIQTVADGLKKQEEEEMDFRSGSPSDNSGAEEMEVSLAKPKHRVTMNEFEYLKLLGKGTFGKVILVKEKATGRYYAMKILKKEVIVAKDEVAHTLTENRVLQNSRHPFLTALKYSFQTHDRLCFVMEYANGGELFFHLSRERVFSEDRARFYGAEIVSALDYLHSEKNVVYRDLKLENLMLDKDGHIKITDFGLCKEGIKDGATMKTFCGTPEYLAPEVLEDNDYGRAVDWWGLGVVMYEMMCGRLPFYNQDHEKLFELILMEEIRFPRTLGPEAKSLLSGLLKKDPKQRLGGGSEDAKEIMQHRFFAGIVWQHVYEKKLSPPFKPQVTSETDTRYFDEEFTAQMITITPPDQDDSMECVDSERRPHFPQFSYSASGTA

The IC50 is the midpoint of a concentration-inhibition curve. Regarding `Nc1ncnc(N2CCC(c3nc(-c4cccc(C(F)(F)F)c4)c[nH]3)CC2)c1Br` [Compound 3, 5-Bromo-6-{4-[4-(3-trifluoromethyl-phenyl)-1H-imidazol-2-yl]-piperidin-1-yl}-pyrimidin-4-ylamine], the IC50 in experiment [1] was 6.2 nM; in experiment [2] it was 1700 nM.
In the case of `Nc1cc(N2CCC(c3nc(-c4ccc(C(F)(F)F)cc4)cn3CCN3CCCC3)CC2)ncn1` [Compound 270], the concentration for half-maximal inhibition (IC50) in experiment [1] turned out to be 360 nM; in experiment [2] it was 1000 nM.
Taken in the same sequence, the figures for `N#Cc1c(N)ncnc1N1CCC(c2nc(-c3ccc(F)c(C(F)(F)F)c3)cn2CCNC2CCCC2)CC1` [Compound 381, 4-Amino-6-{4-[1-(2-cyclopentylamino-ethyl)-4-(4-fluoro-3-trifluoromethyl-phenyl)-1H-imidazol-2-yl]-piperidin-1-yl}-pyrimidine-5-carbonitrile] were 1.1 nM and 0.8 nM.
For `Cn1cc(-c2ccc(F)c(C(F)(F)F)c2)nc1C1CCN(c2ncnc(N)c2-c2cccc(C#N)c2)CC1` [Compound 15, 3-(4-Amino-6-{4-[4-(4-fluoro-3-trifluoromethyl-phenyl)-1-methyl-1H-imidazol-2-yl]-piperidin-1-yl}-pyrimidin-5-yl)-benzonitrile] the same measures were 11 nM and 150 nM.
Taken in the same sequence, the figures for `NC(=O)c1c(N)ncnc1N1CCC(c2nc(-c3ccc(F)c(C(F)(F)F)c3)cn2CCN2CCC2)CC1` [Compound 78, 4-Amino-6-{4-[1-(2-azetidin-1-yl-ethyl)-4-(4-fluoro-3-trifluoromethyl-phenyl)-1H-imidazol-2-yl]-piperidin-1-yl}-pyrimidine-5-carboxylic acid amide] were 2 nM and 14 nM.
On to `CC(C)c1cc(-c2cn(CCN3CCC3)c(C3CCN(c4ncnc(N)c4C(N)=O)CC3)n2)ccn1` [Compound 332], for which the IC50 came out at 3.8 nM in experiment [1] and 37 nM in experiment [2].
On to `CCc1c(N)ncnc1N1CCC(c2nc(-c3ccc(F)c(F)c3)cn2CCN2CCOCC2)CC1` [Compound 196, 6-{4-[4-(3,4-Difluoro-phenyl)-1-(2-morpholin-4-yl-ethyl)-1H-imidazol-2-yl]-piperidin-1-yl}-5-ethyl-pyrimidin-4-ylamine], for which the IC50 in experiment [1] worked out at 5.5 nM; in experiment [2], 370 nM.
For `CCc1c(N)ncnc1N1CCC(c2nc(-c3ccc(F)c(C(F)(F)F)c3)cn2CCN(C)C)CC1` [Compound 82, 6-(4-(1-(2-(Dimethylamino)ethyl)-4-(4-fluoro-3-(trifluoromethyl)phenyl)-1H-imidazol-2-yl)piperidin-1-yl)-5-ethylpyrimidin-4-amine] the same measures were 3.7 nM and 12 nM.
Taken in the same sequence, the figures for `CCc1c(N)ncnc1N1CCC(c2nc(-c3ccc(F)c(OC)c3)cn2CCN2CCC2)CC1` [Compound 108, 6-(4-(1-(2-(azetidin-1-yl)ethyl)-4-(4-fluoro-3-methoxyphenyl)-1H-imidazol-2-yl)piperidin-1-yl)-5-ethylpyrimidin-4-amine] were 2.2 nM and 4.8 nM.
For the compound `Nc1ncnc(N2CCC(c3nc(-c4ccc(F)c(C(F)(F)F)c4)cn3CCN3CCCC3)CC2)c1-c1ccc(F)cc1` [Compound 57], the IC50 in experiment [1] was found to be 8.2 nM; in experiment [2], 140 nM.
For `Cn1cc(-c2ccc(F)c(C(F)(F)F)c2)nc1C1CCN(c2ncnc(N)c2-c2cncnc2)CC1` [Compound 48, 6-{4-[4-(4-Fluoro-3-trifluoromethyl-phenyl)-1-methyl-1H-imidazol-2-yl]-piperidin-1-yl}-[5,5′]bipyrimidinyl-4-ylamine] the same measures were 2.7 nM and 440 nM.
Taken in the same sequence, the figures for `NC(=O)c1c(N)ncnc1N1CCC(c2nc(-c3ccc(F)c(C(F)(F)F)c3)cn2CC2CCCN2)CC1` (stereo not drawn) [Compound 153, 4-amino-6-(4-(4-(4-fluoro-3-(trifluoromethyl)phenyl)-1-(pyrrolidin-2-ylmethyl)-1H-imidazol-2-yl)piperidin-1-yl)pyrimidine-5-carboxamide] were 10 nM and 220 nM.
Take `NC(=O)c1c(N)ncnc1N1CCC(c2nc(-c3ccnc(C4CC4)c3)cn2CCN2CCC2)CC1` [Compound 342]: the IC50 in experiment [1] was determined as 3.7 nM; in experiment [2], 61 nM.
For `C=Cc1c(N)ncnc1N1CCC(c2nc(-c3ccc(F)c(C(F)(F)F)c3)cn2CCN2CCCC2)CC1` [Compound 60] the same measures were 2.5 nM and 6.8 nM.
Taken in the same sequence, the figures for `CCOc1c(N)ncnc1N1CCC(c2nc(-c3ccc(F)c(C(F)(F)F)c3)cn2CC2CNC2)CC1` [Compound 176, 6-(4-(1-(azetidin-3-ylmethyl)-4-(4-fluoro-3-(trifluoromethyl)phenyl)-1H-imidazol-2-yl)piperidin-1-yl)-5-ethoxypyrimidin-4-amine] were 5.5 nM and 5 nM.
With `CCc1c(N)ncnc1N1CCC(c2nc(-c3ccc(C(F)(F)F)c(F)c3)cn2CCN2CC[C@@H](F)C2)CC1` [Compound 246], the half-inhibitory concentration (IC50) in experiment [1] was 1.7 nM; in experiment [2], 25 nM.
For `CNCCn1cc(-c2ccc(F)c(C(F)(F)F)c2)nc1C1CCN(c2ncnc(N)c2C#N)CC1` [Compound 374, 4-Amino-6-{4-[4-(4-fluoro-3-trifluoromethyl-phenyl)-1-(2-methylamino-ethyl)-1H-imidazol-2-yl]-piperidin-1-yl}-pyrimidine-5-carbonitrile] the same measures were 0.4 nM and 1.5 nM.
For `COCCN(C)CCn1cc(-c2ccc(F)c(C(F)(F)F)c2)nc1C1CCN(c2ncnc(N)c2C(N)=O)CC1` [Compound 366, 4-Amino-6-[4-(4-(4-fluoro-3-trifluoromethyl-phenyl)-1-{2-[(2-methoxy-ethyl)-methyl-amino]-ethyl}-1H-imidazol-2-yl)-piperidin-1-yl]-pyrimidine-5-carboxylic acid amide] the same measures were 9.2 nM and 440 nM.
Taken in the same sequence, the figures for `Nc1ncnc(N2CCC(c3nc(-c4ccc(C(F)(F)F)cc4)cn3CCN3CCCC3)CC2)c1Br` [Compound 265] were 6.2 nM and 110 nM.
For `CNCCn1cc(-c2ccnc(C(F)(F)F)c2)nc1C1CCN(c2ncnc(N)c2C2C=NOC2)CC1` (stereo not drawn) [Compound 170, 5-(4,5-dihydroisoxazol-4-yl)-6-(4-(1-(2-(methylamino)ethyl)-4-(2-(trifluoromethyl)pyridin-4-yl)-1H-imidazol-2-yl)piperidin-1-yl)pyrimidin-4-amine], the IC50 came out at 170 nM in experiment [1] and 120 nM in experiment [2].
For `Cc1cc(-c2cn(CCNC(C)C)c(C3CCN(c4ncnc(N)c4C(N)=O)CC3)n2)ccc1F` [Compound 386, 4-Amino-6-{4-[4-(4-fluoro-3-methyl-phenyl)-1-(2-isopropylamino-ethyl)-1H-imidazol-2-yl]-piperidin-1-yl}-pyrimidine-5-carboxylic acid amide] the same measures were 2.4 nM and 15 nM.
For `CN(C)CCn1cc(-c2ccc(F)c(C(F)(F)F)c2)nc1C1CCN(c2ncnc(N)c2-c2ccc(C(C)(C)O)cc2)CC1` [Compound 87, 2-(4-(4-Amino-6-(4-(1-(2-(dimethylamino)ethyl)-4-(4-fluoro-3-(trifluoromethyl)phenyl)-1H-imidazol-2-yl)piperidin-1-yl)pyrimidin-5-yl)phenyl)propan-2-ol] the same measures were 9.3 nM and 190 nM.
Taken in the same sequence, the figures for `CCc1c(N)ncnc1N1CCC(c2nc(-c3ccc(F)c(Cl)c3)cn2CCN2CCCC2)CC1` [Compound 252] were 0.2 nM and 0.4 nM.
`NC(=O)c1c(N)ncnc1N1CCC(c2nc(-c3ccc(F)c(C(F)(F)F)c3)cn2CCNCC2CC2)CC1` [Compound 359, 4-Amino-6-{4-[1-[2-(cyclopropylmethyl-amino)-ethyl]-4-(4-fluoro-3-trifluoromethyl-phenyl)-1H-imidazol-2-yl]-piperidin-1-yl}-pyrimidine-5-carboxylic acid amide]: the half-inhibitory concentration (IC50) in experiment [1] was 2.7 nM; in experiment [2] it was 12 nM.
In the case of `Cc1cc(-c2cn(CCN3CCC3)c(C3CCN(c4ncnc(N)c4-c4cn[nH]c4)CC3)n2)ccc1F` [Compound 164, 6-(4-(1-(2-(azetidin-1-yl)ethyl)-4-(4-fluoro-3-methylphenyl)-1H-imidazol-2-yl)piperidin-1-yl)-5-(1H-pyrazol-4-yl)pyrimidin-4-amine], the IC50 was 4.4 nM in experiment [1] and 5.5 nM in experiment [2].
Taken in the same sequence, the figures for `COC/C=C/c1c(N)ncnc1N1CCC(c2nc(-c3ccc(F)c(C(F)(F)F)c3)cn2C)CC1` [Compound 54, 6-{4-[4-(4-Fluoro-3-trifluoromethyl-phenyl)-1-methyl-1H-imidazol-2-yl]-piperidin-1-yl}-5-((E)-3-methoxy-propenyl)-pyrimidin-4-ylamine] were 2.5 nM and 740 nM.
Consider `Nc1ncnc(N2CCC(c3nc(-c4ccc(F)cc4)cn3CCN3CCCC3)CC2)c1C1CCC1` [Compound 256], for which the results for the IC50 in experiment [1] and in experiment [2] were 6.5 nM and 11 nM, respectively.
Regarding `N#Cc1c(N)ncnc1N1CCC(c2nc(-c3ccc(F)c(C(F)(F)F)c3)cn2CCN)CC1` [Compound 158, 4-amino-6-(4-(1-(2-aminoethyl)-4-(4-fluoro-3-(trifluoromethyl)phenyl)-1H-imidazol-2-yl)piperidin-1-yl)pyrimidine-5-carbonitrile], the 50% inhibitory concentration (IC50) in experiment [1] is 1.5 nM; in experiment [2], 3.6 nM.
Taken in the same sequence, the figures for `CN(C)CCn1cc(-c2ccc(F)c(C(F)(F)F)c2)nc1C1CCN(c2ncnc(N)c2C(N)=O)CC1` [Compound 38, 4-Amino-6-{4-[1-(2-dimethylamino-ethyl)-4-(4-fluoro-3-trifluoromethyl-phenyl)-1H-imidazol-2-yl]-piperidin-1-yl}-pyrimidine-5-carboxylic acid amide] were 3.5 nM and 84 nM.
On to `Cc1cc(-c2cn(CCNCC(C)C)c(C3CCN(c4ncnc(N)c4C(N)=O)CC3)n2)ccc1F` [Compound 392, 4-Amino-6-{4-[4-(4-fluoro-3-methyl-phenyl)-1-(2-isobutylamino-ethyl)-1H-imidazol-2-yl]-piperidin-1-yl}-pyrimidine-5-carboxylic acid amide], for which the IC50 in experiment [1] amounted to 5.5 nM; in experiment [2], 13 nM.
